Paper PMC2248166, “Quantitative peptide binding motifs for 19 human and mouse MHC class I molecules derived using positional scanning combinatorial peptide libraries” (Immunome Research, 2008)
pIC50: −log10 of the molar value. Where a SMILES comes first, the peptide text is derived from it.

Target: HLA A*3001 (Homo sapiens, UniProt P04439, D140H/D185E/E176W/F33S/G80R/H175R/K168Q/R138E/R41S)
Assay: biochemical
Assay type: binding

Sequence of HLA A*3001 (P04439 25-365 limits assumed, stated change not applied): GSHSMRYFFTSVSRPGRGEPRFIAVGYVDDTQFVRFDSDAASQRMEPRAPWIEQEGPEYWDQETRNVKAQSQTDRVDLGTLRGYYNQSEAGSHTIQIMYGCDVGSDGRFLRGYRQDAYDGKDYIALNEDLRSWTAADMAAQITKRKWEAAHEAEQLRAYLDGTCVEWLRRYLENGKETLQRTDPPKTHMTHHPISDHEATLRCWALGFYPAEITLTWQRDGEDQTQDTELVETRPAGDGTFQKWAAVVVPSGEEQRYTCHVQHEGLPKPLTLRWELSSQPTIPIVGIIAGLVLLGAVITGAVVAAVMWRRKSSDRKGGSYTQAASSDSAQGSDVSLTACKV

SMILES	pIC50
CC[C@H](C)[C@H](NC(=O)[C@H](CCC(N)=O)NC(=O)[C@H](CCC(=O)O)NC(=O)[C@H](CCCNC(=N)N)NC(=O)[C@H](C)NC(=O)[C@@H](N)CCCNC(=N)N)C(=O)N[C@@H](CO)C(=O)N[C@@H](CC(N)=O)C(=O)N[C@@H](CC(C)C)C(=O)O [3102.0237] (H-RAREQISNL-OH)	8.57
CSCC[C@H](N)C(=O)N[C@@H](CCC(N)=O)C(=O)N[C@@H](CCCCN)C(=O)N[C@@H](CS)C(=O)N[C@@H](Cc1ccc(O)cc1)C(=O)N[C@@H](Cc1ccccc1)C(=O)N[C@@H](CO)C(=O)N[C@@H](Cc1ccc(O)cc1)C(=O)N[C@@H](CCCCN)C(=O)O [3102.0090] (H-MQKCYFSYK-OH)	9.28
CC[C@H](C)[C@H](NC(=O)[C@@H](N)CO)C(=O)N[C@@H](CCCCN)C(=O)N[C@@H](CCCNC(=N)N)C(=O)N[C@@H](CO)C(=O)N[C@@H](CC(N)=O)C(=O)N[C@H](C(=O)N[C@@H](Cc1ccccc1)C(=O)N[C@@H](C)C(=O)O)C(C)C [3102.0214] (H-SIKRSNVFA-OH)	8.44
CC[C@H](C)[C@H](NC(=O)[C@H](CC(C)C)NC(=O)[C@H](C)NC(=O)[C@@H](NC(=O)[C@H](Cc1c[nH]cn1)NC(=O)[C@@H](NC(=O)[C@@H](N)CCCNC(=N)N)[C@@H](C)O)[C@@H](C)O)C(=O)N[C@@H](Cc1ccccc1)C(=O)N[C@@H](CC(C)C)C(=O)O [3102.0094] (H-RTHTALIFL-OH)	9.15
CC[C@H](C)[C@H](NC(=O)[C@H](CCCCN)NC(=O)[C@@H](NC(=O)CN)[C@@H](C)O)C(=O)N[C@@H](C)C(=O)N[C@@H](CC(C)C)C(=O)N[C@@H](CC(C)C)C(=O)N[C@@H](CCC(=O)O)C(=O)N[C@@H](CC(C)C)C(=O)O [3102.0200] (H-GTKIALLEL-OH)	8.89
CC[C@H](C)[C@H](NC(=O)[C@@H]1CCCN1C(=O)[C@H](C)NC(=O)[C@H](CO)NC(=O)[C@H](C)NC(=O)[C@@H]1CCCN1C(=O)[C@H](CCCCN)NC(=O)[C@@H](NC(=O)[C@@H](N)CCCNC(=N)N)[C@@H](C)O)C(=O)O [3102.0187] (H-RTKPASAPI-OH)	9.96
CSCC[C@H](NC(=O)[C@H](CCCNC(=N)N)NC(=O)[C@H](Cc1ccc(O)cc1)NC(=O)[C@@H](N)CCCNC(=N)N)C(=O)N[C@@H](Cc1c[nH]cn1)C(=O)N1CCC[C@H]1C(=O)N[C@@H](CCSC)C(=O)N[C@@H](CO)C(=O)N[C@@H](CCCCN)C(=O)O [3102.0268] (H-RYRMHPMSK-OH)	10.17
CC[C@H](C)[C@H](NC(=O)[C@H](CO)NC(=O)[C@@H](NC(=O)[C@H](CCC(N)=O)NC(=O)[C@H](CCCCN)NC(=O)[C@@H](NC(=O)[C@@H](N)CCCNC(=N)N)C(C)C)[C@@H](C)CC)C(=O)N[C@@H](CO)C(=O)N[C@H](C(=O)O)[C@@H](C)O [3102.0166] (H-RVKQISIST-OH)	9.43
CC(C)[C@H](NC(=O)[C@H](CCC(N)=O)NC(=O)[C@@H](NC(=O)[C@H](CCCNC(=N)N)NC(=O)[C@H](CCC(=O)O)NC(=O)[C@@H](NC(=O)[C@H](CCCNC(=N)N)NC(=O)[C@H](CO)NC(=O)[C@@H](N)CCCCN)C(C)C)C(C)C)C(=O)O [3102.0075] (H-KSRVERVQV-OH)	7.96
CC[C@H](C)[C@H](NC(=O)[C@H](C)NC(=O)[C@@H](NC(=O)[C@@H](NC(=O)[C@H](C)NC(=O)[C@H](Cc1ccccc1)NC(=O)[C@@H](NC(=O)[C@@H](N)CCCCN)[C@@H](C)O)[C@@H](C)CC)[C@@H](C)CC)C(=O)N[C@H](C(=O)O)C(C)C [3102.0202] (H-KTFAIIAIV-OH)	7.62
CC(C)C[C@H](NC(=O)[C@H](CCC(=O)O)NC(=O)[C@H](CCCNC(=N)N)NC(=O)[C@H](CCCCN)NC(=O)[C@H](Cc1ccc(O)cc1)NC(=O)[C@H](Cc1ccccc1)NC(=O)[C@H](CCCCN)NC(=O)[C@@H](NC(=O)[C@@H](N)CCCCN)C(C)C)C(=O)O [3102.0235] (H-KVKFYKREL-OH)	7.38
CC[C@H](C)[C@H](NC(=O)[C@H](CCC(N)=O)NC(=O)[C@H](Cc1c[nH]cn1)NC(=O)[C@H](CO)NC(=O)[C@H](CCC(=O)O)NC(=O)[C@H](CCCCN)NC(=O)[C@@H](NC(=O)[C@@H](N)C(C)C)[C@@H](C)O)C(=O)N[C@@H](CCCCN)C(=O)O [3102.0096] (H-VTKESHQIK-OH)	8.82
CC[C@H](C)[C@H](NC(=O)[C@@H]1CCCN1C(=O)[C@H](CC(C)C)NC(=O)[C@H](CCCNC(=N)N)NC(=O)[C@@H](NC(=O)[C@@H](N)CCSC)[C@@H](C)O)C(=O)N[C@@H](CC(C)C)C(=O)N[C@@H](CC(C)C)C(=O)N[C@@H](CC(C)C)C(=O)O [3102.0104] (H-MTRLPILLL-OH)	9.19
CC[C@H](C)[C@H](NC(=O)[C@H](CCSC)NC(=O)[C@H](C)NC(=O)[C@H](C)NC(=O)[C@H](CCCNC(=N)N)NC(=O)[C@H](CC(C)C)NC(=O)[C@@H](N)[C@@H](C)O)C(=O)N[C@@H](CO)C(=O)N[C@@H](CC(C)C)C(=O)O [3102.0245] (H-TLRAAMISL-OH)	9.15
CC(C)C[C@H](NC(=O)[C@H](CC(N)=O)NC(=O)[C@H](CC(C)C)NC(=O)[C@H](CCCNC(=N)N)NC(=O)[C@H](CCCNC(=N)N)NC(=O)[C@H](CO)NC(=O)[C@@H](N)CCCCN)C(=O)N[C@@H](Cc1ccccc1)C(=O)N[C@@H](CO)C(=O)O [3102.0009] (H-KSRRLNLFS-OH)	8.48
CC[C@H](C)[C@H](NC(=O)[C@H](CCCCN)NC(=O)[C@@H](NC(=O)[C@H](CO)NC(=O)[C@H](CCC(N)=O)NC(=O)[C@H](CC(=O)O)NC(=O)[C@H](CCCNC(=N)N)NC(=O)[C@H](CC(C)C)NC(=O)[C@@H](N)Cc1c[nH]cn1)[C@@H](C)CC)C(=O)O [3102.0041] (H-HLRDQSIKI-OH)	7.82
CC(C)C[C@H](NC(=O)[C@H](Cc1ccc(O)cc1)NC(=O)[C@H](CC(C)C)NC(=O)[C@H](Cc1ccccc1)NC(=O)[C@H](C)NC(=O)[C@H](Cc1ccccc1)NC(=O)[C@H](CCCNC(=N)N)NC(=O)[C@H](Cc1ccc(O)cc1)NC(=O)[C@@H](N)CCCNC(=N)N)C(=O)O [3102.0049] (H-RYRFAFLYL-OH)	9.77
CC[C@H](C)[C@H](NC(=O)[C@H](CCCCN)NC(=O)[C@@H](NC(=O)[C@@H](N)CCCNC(=N)N)[C@@H](C)O)C(=O)N1CCC[C@H]1C(=O)N[C@@H](CC(C)C)C(=O)N[C@@H](CO)C(=O)N[C@@H](CCCCN)C(=O)N[C@H](C(=O)O)C(C)C [3102.0039] (H-RTKIPLSKV-OH)	8.39
CC(C)C[C@H](NC(=O)[C@@H](N)CCCNC(=N)N)C(=O)N[C@@H](CCCCN)C(=O)N[C@@H](CC(=O)O)C(=O)N[C@@H](Cc1ccc(O)cc1)C(=O)N[C@@H](CCC(N)=O)C(=O)N[C@@H](Cc1c[nH]cn1)C(=O)N[C@@H](Cc1ccccc1)C(=O)N[C@H](C(=O)O)C(C)C [3102.0208] (H-RLKDYQHFV-OH)	9.41
CC[C@H](C)[C@H](NC(=O)[C@H](Cc1ccc(O)cc1)NC(=O)[C@H](CC(C)C)NC(=O)[C@@H]1CCCN1C(=O)[C@H](CC(=O)O)NC(=O)[C@H](CCCNC(=N)N)NC(=O)[C@@H](NC(=O)[C@@H](N)CCSC)[C@@H](C)O)C(=O)N[C@@H](Cc1ccc(O)cc1)C(=O)O [3102.0147] (H-MTRDPLYIY-OH)	7.77
CC(C)C[C@H](NC(=O)[C@H](Cc1ccccc1)NC(=O)[C@H](CO)NC(=O)[C@H](CCCCN)NC(=O)[C@H](CC(C)C)NC(=O)[C@H](CCC(N)=O)NC(=O)[C@H](CCCCN)NC(=O)[C@H](CO)NC(=O)[C@@H](N)CCCCN)C(=O)O [3102.0146] (H-KSKQLKSFL-OH)	7.89
